The source made the active and inactive calls.
Key:
[1] = test system: HEK293; assay: HEK cell cytotoxicity by LDH release, dose response, cytotoxicity control for IDE activator project, fluorescence, HEK cells (AID 588440); assay type: functional, cell-based; details: Homo sapiens;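 also: cytotoxicity by LDH release measuring loss of membrane integrity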
[2] = target: T1, Insulin-degrading enzyme (Homo sapiens, UniProt P14735); assay: activators of recombinant IDE enzyme, dose response, counter-screen for IDE activator project, biochemical, fluorescence polarization (AID 588681)
T1 sequence (P14735 whole entry): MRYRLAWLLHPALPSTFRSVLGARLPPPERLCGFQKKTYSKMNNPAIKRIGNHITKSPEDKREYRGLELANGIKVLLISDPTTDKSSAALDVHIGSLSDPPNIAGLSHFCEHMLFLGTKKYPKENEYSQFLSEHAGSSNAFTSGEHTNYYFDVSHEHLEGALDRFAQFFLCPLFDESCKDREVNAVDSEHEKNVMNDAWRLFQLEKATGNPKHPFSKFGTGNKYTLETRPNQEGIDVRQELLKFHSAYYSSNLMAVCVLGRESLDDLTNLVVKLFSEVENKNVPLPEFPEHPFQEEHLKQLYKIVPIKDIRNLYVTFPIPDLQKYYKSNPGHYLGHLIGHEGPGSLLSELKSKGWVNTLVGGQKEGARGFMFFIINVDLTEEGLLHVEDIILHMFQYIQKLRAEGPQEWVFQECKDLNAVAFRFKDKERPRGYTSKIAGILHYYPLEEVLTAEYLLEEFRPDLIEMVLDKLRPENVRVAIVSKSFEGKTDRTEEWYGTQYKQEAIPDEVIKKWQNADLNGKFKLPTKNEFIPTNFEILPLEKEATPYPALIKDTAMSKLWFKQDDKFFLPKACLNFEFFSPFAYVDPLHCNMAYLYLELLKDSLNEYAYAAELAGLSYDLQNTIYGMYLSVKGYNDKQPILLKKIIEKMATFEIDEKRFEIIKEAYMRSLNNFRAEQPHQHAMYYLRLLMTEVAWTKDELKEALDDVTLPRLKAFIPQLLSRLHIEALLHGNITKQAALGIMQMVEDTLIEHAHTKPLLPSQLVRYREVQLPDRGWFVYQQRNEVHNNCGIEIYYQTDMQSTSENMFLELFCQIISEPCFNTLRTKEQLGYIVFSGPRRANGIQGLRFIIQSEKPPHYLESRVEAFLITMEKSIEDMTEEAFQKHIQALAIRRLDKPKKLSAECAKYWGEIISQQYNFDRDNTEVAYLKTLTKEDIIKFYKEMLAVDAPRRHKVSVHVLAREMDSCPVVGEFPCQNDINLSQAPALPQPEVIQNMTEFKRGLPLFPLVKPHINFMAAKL

[3] = target: Beta-lactamase (Pseudomonas aeruginosa, UniProt Q79MP6);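 also: biochemical dose-response test of metallo-beta-lactamase enzyme inhibition, read out by epi-absorbance; purified recombinant IMP-1 metallo-beta-lactamase with nitrocefin as substrate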
[4] = test system: HEK293; assay: optical interference in Abeta FP readout, dose response, artefact control for IDE activator project, biochemical, fluorescence polarization (AID 588442); assay type: functional, cell-based; details: Homo sapiens
[5] = target: T1, Insulin-degrading enzyme; assay: activators of endogenous IDE in HEK cells, dose response, cell-based, fluorescence polarization (AID 588439); assay type: functional
[6] = target: Beta-lactamase (Salmonella choleraesuis (strain SC-B67), UniProt Q5J463)
[7] = target: G-protein coupled receptor 55 (Homo sapiens, UniProt Q9Y2T6); assay: GPR55 antagonists blocking LPI-driven arrestin recruitment, primary screen, imaging, U2OS, beta-arrestin-GFP, LPI agonist (AID 2013); assay type: functional;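 also: antagonist potency measured as reduced agonist-driven arrestin aggregation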
[8] = target: Apelin receptor (Homo sapiens, UniProt P35414); assay: APJ beta-arrestin recruitment antagonism, SAR follow-up, selectivity assay for CCR6 antagonist project, cell-based, luminescent, enzyme-fragment complementation (AID 588359); assay type: functional
[9] = target: T2, C-C chemokine receptor type 6 (Homo sapiens, UniProt P51684); assay: CCR6 receptor antagonists, dose response, cell-based, luminescent beta-arrestin readout (AID 504728); assay type: functional
T2 sequence (P51684 whole entry): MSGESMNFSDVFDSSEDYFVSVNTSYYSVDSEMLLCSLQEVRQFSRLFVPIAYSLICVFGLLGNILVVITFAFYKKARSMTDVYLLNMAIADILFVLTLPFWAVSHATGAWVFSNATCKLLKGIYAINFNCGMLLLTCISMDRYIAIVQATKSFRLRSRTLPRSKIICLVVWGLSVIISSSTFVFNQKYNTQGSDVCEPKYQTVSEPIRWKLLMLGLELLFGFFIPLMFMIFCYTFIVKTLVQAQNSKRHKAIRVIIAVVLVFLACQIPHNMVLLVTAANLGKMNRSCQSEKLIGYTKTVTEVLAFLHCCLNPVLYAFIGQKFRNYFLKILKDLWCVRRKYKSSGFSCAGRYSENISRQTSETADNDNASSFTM

[10] = target: T3, Heat shock factor protein 1 (Mus musculus, UniProt P38532); assay: HSF1 potentiators in luciferase reporter cells, confirmation, cell-based, NIH3T3, luminescence, dose retest (AID 435004); assay type: functional;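 also: stress induced by proteasome inhibitor MG132 added 30 min after compound; luciferase reporter driven by HSF1 response element in NIH3T3 cells; actives raise luminescence as potentiators of the MG132 stress response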
T3 sequence (P38532 whole entry): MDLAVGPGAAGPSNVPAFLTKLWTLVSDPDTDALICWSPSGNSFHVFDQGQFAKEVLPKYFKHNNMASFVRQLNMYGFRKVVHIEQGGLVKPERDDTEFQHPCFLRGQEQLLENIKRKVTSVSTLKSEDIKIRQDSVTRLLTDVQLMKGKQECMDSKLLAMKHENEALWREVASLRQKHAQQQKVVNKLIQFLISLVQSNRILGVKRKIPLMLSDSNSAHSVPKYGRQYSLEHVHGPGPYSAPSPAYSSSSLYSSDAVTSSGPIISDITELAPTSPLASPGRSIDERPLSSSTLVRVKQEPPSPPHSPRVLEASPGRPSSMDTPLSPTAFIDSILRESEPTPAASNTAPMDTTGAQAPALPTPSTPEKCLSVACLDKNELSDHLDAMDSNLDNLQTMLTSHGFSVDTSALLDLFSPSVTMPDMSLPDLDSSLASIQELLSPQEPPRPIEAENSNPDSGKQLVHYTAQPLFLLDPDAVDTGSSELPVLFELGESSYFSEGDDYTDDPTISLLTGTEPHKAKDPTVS

[11] = target: C-X-C chemokine receptor type 5 (Homo sapiens, UniProt P32302); assay: CXCR5 receptor antagonists, SAR follow-up, selectivity assay for CCR6 antagonist project, cell-based, beta-arrestin, luminescence, CHO-K1 PathHunter (AID 540340); assay type: functional
[12] = target: T2, C-C chemokine receptor type 6; assay: CCR6 receptor antagonists, SAR follow-up, cell-based, luminescent beta-arrestin readout (AID 540334); assay type: functional
[13] = target: Beta-galactosidase (Escherichia coli, UniProt Q8VNN2); assay: beta-galactosidase enzyme inhibitors and activators, dose response, artefact control for CCR6 antagonist project, biochemical, E. coli enzyme, set 3 (AID 504712); assay type: functional
[14] = inhibitors of cytokine-induced nitrite release, dose response, cell-based, Griess absorbance, INS-1E, dry powder, set 3 (AID 488870); assay type: functional; details: Rattus norvegicus
[15] = test system: INS1; assay: inhibitors of cytokine-induced nitrite release, dose response, cell-based, Griess absorbance, INS-1E, dry powder, set 2 (AID 488868); assay type: functional; details: Rattus norvegicus
[16] = Vero cell cytotoxicity, dose response, cytotoxicity control for M. tuberculosis growth inhibitor project, Vero cells, purified and synthesized compounds, set 4 (AID 504854); assay type: functional; details: Mycobacterium tuberculosis
[17] = THP-1 cell cytotoxicity, cytotoxicity control, set 4 (AID 504911); assay type: functional; details: Mycobacterium tuberculosis
[18] = target: Vascular endothelial growth factor receptor 2 (Homo sapiens, UniProt P35968); assay type: functional
[19] = target: Inhibitor of nuclear factor kappa-B kinase subunit epsilon (Homo sapiens, UniProt Q14164); assay: Navigating the Kinome. Panel member name: IKBKE; assay type: functional
[20] = target: Aurora kinase A (Homo sapiens, UniProt O14965); assay type: functional;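 also: value from the Navigating the Kinome kinase panel profiling, panel entry STK6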
[21] = target: Casein kinase I isoform alpha (Homo sapiens, UniProt P48729); assay type: functional
[22] = target: Cyclin-dependent kinase 5 (Homo sapiens, UniProt Q00535); assay type: functional;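 also: CDK5 measured as one member of a kinase profiling panel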
[23] = target: Serine/threonine-protein kinase Nek2 (Homo sapiens, UniProt P51955); assay type: functional
[24] = target: Dual specificity mitogen-activated protein kinase kinase 1 (Homo sapiens, UniProt Q02750); assay: Navigating the Kinome. Panel member name: MAP2K1; assay type: functional
[25] = target: Protein kinase C theta type (Homo sapiens, UniProt Q04759); assay: Navigating the Kinome. Panel member name: PRKCQ; assay type: functional
[26] = target: Calcium/calmodulin-dependent protein kinase type II subunit alpha (Homo sapiens, UniProt Q9UQM7); assay: Navigating the Kinome. Panel member name: CAMK2A; assay type: functional
[27] = target: Cyclin-dependent kinase 8 (Homo sapiens, UniProt P49336); assay: Navigating the Kinome. Panel member name: CDK8; assay type: functional
[28] = target: Mitogen-activated protein kinase kinase kinase kinase 4 (Homo sapiens, UniProt O95819); assay type: functional
[29] = target: Dual specificity tyrosine-phosphorylation-regulated kinase 1B (Homo sapiens, UniProt Q9Y463); assay: Navigating the Kinome. Panel member name: DYRK1B; assay type: functional
[30] = target: Platelet-derived growth factor receptor beta (Homo sapiens, UniProt P09619); assay type: functional;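 also: value comes from a kinome panel, with PDGFRB tested as one panel member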
[31] = target: Dual specificity protein kinase CLK4 (Homo sapiens, UniProt Q9HAZ1); assay type: functional
[32] = target: G protein-coupled receptor kinase 5 (Homo sapiens, UniProt P34947); assay: Navigating the Kinome. Panel member name: GPRK5; assay type: functional
[33] = target: Hepatocyte growth factor receptor (Homo sapiens, UniProt P08581); assay type: functional;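 also: kinase panel profiling across the kinome, with MET as the panel member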
[34] = target: Dual specificity tyrosine-phosphorylation-regulated kinase 1A (Homo sapiens, UniProt Q13627); assay type: functional;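 also: measured against DYRK1A as one member of a broad kinome profiling panel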
[35] = target: Focal adhesion kinase 1 (Homo sapiens, UniProt Q05397); assay type: functional;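 also: measured as one member of a kinome panel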
[36] = target: Fibroblast growth factor receptor 1 (Homo sapiens, UniProt P11362); assay type: functional
[37] = target: Tyrosine-protein kinase ABL1 (Homo sapiens, UniProt P00519); assay type: functional
[38] = target: Aurora kinase B (Homo sapiens, UniProt Q96GD4); assay type: functional
[39] = target: Platelet-derived growth factor receptor alpha (Homo sapiens, UniProt P16234); assay: Navigating the Kinome. Panel member name: PDGFRA; assay type: functional
[40] = target: Macrophage colony-stimulating factor 1 receptor (Homo sapiens, UniProt P07333); assay type: functional;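 also: value comes from the Navigating the Kinome screening panel, CSF1R member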
[41] = target: Leukocyte tyrosine kinase receptor (Homo sapiens, UniProt P29376); assay: Navigating the Kinome. Panel member name: LTK; assay type: functional
[42] = target: cAMP-dependent protein kinase catalytic subunit alpha (Homo sapiens, UniProt P17612); assay type: functional
[43] = target: Proto-oncogene tyrosine-protein kinase receptor Ret (Homo sapiens, UniProt P07949); assay type: functional;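 also: measured within a kinome-wide profiling panel, RET as the panel member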
[44] = target: Vascular endothelial growth factor receptor 1 (Homo sapiens, UniProt P17948); assay type: functional;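 also: measured within a kinome-wide profiling panel, FLT1 as the panel member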
[45] = target: Tyrosine-protein kinase receptor TYRO3 (Homo sapiens, UniProt Q06418); assay type: functional;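 also: TYRO3 value obtained as one member of a kinome-wide profiling panel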
[46] = target: Activated CDC42 kinase 1 (Homo sapiens, UniProt Q07912); assay: Navigating the Kinome. Panel member name: ACK1; assay type: functional
[47] = target: Serine/threonine-protein kinase Chk1 (Homo sapiens, UniProt O14757); assay type: functional;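 also: measured as one member of a kinome-wide kinase profiling panel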
[48] = target: DNA dC->dU-editing enzyme APOBEC-3A (Homo sapiens, UniProt P31941); assay: SAR analysis of small molecule inhibitors of APOBEC3A DNA Deaminase via a fluorescence-based single-stranded DNA deaminase assay.; assay type: functional; details: read-out: IC50_Mean
[49] = target: DNA dC->dU-editing enzyme APOBEC-3G (Homo sapiens, UniProt Q9HC16); assay: APOBEC3G deaminase inhibitors, SAR follow-up, biochemical, fluorescence, single-stranded DNA substrate (AID 602136); assay type: functional; details: read-out: IC50_Mean

Sequence of Hepatocyte growth factor receptor (P08581 whole entry): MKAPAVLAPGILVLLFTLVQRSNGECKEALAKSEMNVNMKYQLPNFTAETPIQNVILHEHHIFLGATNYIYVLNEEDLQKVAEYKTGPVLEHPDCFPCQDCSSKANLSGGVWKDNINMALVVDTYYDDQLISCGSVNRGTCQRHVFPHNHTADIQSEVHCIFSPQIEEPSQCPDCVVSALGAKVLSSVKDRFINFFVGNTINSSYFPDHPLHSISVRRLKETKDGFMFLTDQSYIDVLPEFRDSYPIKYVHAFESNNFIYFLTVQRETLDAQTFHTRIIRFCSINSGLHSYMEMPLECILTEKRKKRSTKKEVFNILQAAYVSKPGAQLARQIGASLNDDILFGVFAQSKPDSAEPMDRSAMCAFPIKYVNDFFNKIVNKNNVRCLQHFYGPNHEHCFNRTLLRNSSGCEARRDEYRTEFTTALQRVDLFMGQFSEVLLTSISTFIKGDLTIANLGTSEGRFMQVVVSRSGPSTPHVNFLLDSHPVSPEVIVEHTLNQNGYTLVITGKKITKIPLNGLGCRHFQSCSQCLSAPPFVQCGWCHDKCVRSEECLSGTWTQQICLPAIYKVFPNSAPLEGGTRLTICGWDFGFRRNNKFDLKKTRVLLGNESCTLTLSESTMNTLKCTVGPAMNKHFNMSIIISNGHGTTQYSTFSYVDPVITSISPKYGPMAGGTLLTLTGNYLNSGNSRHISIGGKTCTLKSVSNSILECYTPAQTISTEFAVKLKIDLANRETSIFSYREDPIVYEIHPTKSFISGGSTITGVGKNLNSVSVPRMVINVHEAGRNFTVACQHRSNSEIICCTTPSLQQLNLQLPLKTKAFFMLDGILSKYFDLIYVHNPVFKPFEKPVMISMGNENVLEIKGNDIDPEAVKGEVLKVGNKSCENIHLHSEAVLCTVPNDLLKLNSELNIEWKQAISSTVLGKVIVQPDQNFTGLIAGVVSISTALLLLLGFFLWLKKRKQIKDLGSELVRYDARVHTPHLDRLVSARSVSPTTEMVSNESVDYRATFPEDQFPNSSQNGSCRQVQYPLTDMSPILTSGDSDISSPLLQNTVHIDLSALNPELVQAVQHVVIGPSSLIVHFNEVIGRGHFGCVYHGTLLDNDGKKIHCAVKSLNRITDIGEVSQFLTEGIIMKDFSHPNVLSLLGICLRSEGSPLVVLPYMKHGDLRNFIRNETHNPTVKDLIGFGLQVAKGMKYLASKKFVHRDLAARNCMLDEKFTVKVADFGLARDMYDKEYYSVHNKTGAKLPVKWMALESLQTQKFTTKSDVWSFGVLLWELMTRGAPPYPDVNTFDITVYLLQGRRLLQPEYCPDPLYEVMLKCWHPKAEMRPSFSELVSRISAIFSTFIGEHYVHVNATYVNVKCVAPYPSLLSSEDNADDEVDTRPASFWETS
Sequence of Vascular endothelial growth factor receptor 2 (P35968 whole entry): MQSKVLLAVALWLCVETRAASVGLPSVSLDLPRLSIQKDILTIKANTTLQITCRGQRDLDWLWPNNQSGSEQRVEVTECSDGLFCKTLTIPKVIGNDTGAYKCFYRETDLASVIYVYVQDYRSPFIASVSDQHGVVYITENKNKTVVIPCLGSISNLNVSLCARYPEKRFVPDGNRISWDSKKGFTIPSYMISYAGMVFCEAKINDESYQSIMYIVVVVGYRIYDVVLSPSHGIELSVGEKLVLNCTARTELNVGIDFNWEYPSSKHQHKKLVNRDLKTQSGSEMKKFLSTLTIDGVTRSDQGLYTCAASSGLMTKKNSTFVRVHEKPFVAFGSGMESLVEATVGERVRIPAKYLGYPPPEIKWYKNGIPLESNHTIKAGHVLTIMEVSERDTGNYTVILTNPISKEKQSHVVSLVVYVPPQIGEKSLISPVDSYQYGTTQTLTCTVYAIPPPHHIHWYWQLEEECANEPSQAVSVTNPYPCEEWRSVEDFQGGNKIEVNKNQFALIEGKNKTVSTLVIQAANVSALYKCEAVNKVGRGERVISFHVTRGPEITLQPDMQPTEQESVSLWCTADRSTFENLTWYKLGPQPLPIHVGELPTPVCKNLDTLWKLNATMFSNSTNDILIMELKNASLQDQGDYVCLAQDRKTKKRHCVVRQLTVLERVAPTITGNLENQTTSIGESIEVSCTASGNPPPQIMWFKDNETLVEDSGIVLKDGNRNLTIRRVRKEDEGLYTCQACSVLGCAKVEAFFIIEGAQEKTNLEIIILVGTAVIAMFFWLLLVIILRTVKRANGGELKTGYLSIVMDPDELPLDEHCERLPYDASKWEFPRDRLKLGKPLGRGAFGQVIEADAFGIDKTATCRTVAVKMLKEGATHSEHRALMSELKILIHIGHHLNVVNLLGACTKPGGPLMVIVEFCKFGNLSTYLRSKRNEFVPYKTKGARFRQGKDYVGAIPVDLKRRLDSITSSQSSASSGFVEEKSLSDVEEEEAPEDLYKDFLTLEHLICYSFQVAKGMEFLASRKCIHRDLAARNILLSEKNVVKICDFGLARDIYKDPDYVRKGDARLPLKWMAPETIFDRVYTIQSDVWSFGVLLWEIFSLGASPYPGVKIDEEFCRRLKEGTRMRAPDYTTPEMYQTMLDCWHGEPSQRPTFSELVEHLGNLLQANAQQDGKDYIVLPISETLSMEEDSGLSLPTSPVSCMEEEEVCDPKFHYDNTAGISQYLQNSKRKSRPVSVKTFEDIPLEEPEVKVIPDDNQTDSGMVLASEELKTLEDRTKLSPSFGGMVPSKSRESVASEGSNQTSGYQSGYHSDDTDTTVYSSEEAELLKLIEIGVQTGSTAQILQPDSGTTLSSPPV
Sequence of Calcium/calmodulin-dependent protein kinase type II subunit alpha (Q9UQM7 whole entry): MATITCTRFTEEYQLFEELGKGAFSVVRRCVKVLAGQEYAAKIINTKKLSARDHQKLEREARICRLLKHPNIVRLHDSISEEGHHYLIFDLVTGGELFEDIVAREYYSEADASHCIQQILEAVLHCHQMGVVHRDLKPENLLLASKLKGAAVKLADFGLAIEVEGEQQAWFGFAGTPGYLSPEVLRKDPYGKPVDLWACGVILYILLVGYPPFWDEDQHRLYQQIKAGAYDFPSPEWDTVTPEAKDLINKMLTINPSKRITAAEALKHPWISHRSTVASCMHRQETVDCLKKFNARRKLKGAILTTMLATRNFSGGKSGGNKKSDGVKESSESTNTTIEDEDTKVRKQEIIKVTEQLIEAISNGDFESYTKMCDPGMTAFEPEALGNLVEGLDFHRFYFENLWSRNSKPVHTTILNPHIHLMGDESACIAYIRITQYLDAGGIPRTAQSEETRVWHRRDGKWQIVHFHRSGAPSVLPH
Sequence of C-X-C chemokine receptor type 5 (P32302 whole entry): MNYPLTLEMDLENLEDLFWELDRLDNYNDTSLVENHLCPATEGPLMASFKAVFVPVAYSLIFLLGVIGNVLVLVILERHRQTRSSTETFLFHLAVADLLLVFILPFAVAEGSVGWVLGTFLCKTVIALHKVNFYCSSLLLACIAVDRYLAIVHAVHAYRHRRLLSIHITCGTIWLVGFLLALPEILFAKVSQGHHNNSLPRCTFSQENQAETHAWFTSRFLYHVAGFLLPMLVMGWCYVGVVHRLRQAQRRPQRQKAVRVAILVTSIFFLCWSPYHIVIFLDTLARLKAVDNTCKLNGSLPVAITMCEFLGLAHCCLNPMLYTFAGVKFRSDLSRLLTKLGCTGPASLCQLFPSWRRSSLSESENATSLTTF
Sequence of Aurora kinase A (O14965 whole entry, canonical isoform): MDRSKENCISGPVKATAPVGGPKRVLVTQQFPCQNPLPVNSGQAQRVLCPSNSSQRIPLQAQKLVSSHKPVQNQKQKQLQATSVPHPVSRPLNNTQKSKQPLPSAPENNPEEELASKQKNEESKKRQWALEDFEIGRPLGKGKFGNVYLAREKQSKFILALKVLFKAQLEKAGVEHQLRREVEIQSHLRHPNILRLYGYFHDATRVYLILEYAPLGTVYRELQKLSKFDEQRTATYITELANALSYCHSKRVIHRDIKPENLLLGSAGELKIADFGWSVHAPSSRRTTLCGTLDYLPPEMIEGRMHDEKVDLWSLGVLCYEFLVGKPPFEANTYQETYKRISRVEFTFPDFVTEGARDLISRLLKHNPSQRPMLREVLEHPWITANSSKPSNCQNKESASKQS
Sequence of G protein-coupled receptor kinase 5 (P34947 whole entry): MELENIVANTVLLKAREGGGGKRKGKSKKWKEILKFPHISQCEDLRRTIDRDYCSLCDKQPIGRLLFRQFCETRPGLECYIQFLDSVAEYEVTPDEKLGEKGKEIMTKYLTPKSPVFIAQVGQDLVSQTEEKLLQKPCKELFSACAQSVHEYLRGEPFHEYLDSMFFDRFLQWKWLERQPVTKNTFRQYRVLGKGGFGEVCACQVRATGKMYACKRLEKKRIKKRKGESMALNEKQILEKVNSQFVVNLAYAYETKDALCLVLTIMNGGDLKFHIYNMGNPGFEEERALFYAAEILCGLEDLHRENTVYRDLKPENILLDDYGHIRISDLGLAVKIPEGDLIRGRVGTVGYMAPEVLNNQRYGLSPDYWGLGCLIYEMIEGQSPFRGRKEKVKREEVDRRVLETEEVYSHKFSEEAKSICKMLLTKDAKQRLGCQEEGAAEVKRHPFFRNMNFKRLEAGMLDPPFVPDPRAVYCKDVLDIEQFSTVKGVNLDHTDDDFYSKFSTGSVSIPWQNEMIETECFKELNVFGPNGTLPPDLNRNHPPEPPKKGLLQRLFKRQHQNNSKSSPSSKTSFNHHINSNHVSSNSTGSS
Sequence of Serine/threonine-protein kinase Nek2 (P51955 whole entry): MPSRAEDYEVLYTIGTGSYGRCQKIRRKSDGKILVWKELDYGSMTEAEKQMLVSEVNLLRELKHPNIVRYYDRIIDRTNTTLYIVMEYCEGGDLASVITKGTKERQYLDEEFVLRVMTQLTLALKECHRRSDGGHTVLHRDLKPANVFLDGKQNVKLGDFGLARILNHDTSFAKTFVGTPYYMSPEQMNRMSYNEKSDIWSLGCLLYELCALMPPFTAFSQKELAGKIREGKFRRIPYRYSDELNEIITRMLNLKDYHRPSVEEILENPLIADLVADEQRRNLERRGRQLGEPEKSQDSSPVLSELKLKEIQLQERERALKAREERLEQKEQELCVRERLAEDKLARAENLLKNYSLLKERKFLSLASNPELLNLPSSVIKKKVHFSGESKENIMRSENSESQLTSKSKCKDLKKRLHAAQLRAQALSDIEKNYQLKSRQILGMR

Compound: CCN(CC)C1=CC2=CC(=C(C#N)C#N)CCC2CC1 (centres undefined)
- IC50 [1]: > 89.2 µM (inactive)
- EC50 [2]: > 54.7 µM (inactive)
- IC50 [3]: 3.32 µM (active)
- EC50 [4]: > 54.7 µM (inactive)
- EC50 [5]: > 54.7 µM (inactive)
- IC50 [6]: 1.34 µM (active)
- IC50 [7]: 3 µM (active)

Compound: CN1C(=O)C(=C2CC(c3ccc(Cl)cc3)NN2)C(=O)N(C)C1=O (centres undefined)
- IC50 [8]: 7.22 µM (active)
- IC50 [9]: 14.9 µM (active)
- EC50 [10]: > 260 µM (inactive)
- IC50 [11]: 9.24 µM (inactive)
- IC50 [12]: 5.84 µM (active)
- IC50 [13]: > 66.6 µM (inactive)

Compound: C[C@@H]1CN([C@@H](C)CO)C(=O)c2cccc(NC(=O)Nc3cccc4ccccc34)c2O[C@H]1CN(C)S(=O)(=O)c1ccccc1F
- AC50 [14]: 32.7 µM (active)
- AC50 [15]: 48.6 µM (active)

Compound: O=C(CSc1nc2c(c(=O)[nH]1)CCC2)NC1CCCCC1
- CC50 [16]: > 100 µM (active)
- CC50 [17]: > 100 µM (active)

Compound: CC(C)c1cc(=O)[nH]c2[nH][nH]c(=O)c12
- Ki [18]: > 100 µM (inactive)
- Ki [19]: 63.1 µM (active)
- Ki [20]: 15.8 µM (active)
- Ki [21]: 20 µM (active)
- Ki [22]: 15.8 µM (active)
- Ki [23]: 63.1 µM (active)
- Ki [24]: 100 µM (active)
- Ki [25]: > 100 µM (inactive)
- Ki [26]: 63.1 µM (active)
- Ki [27]: 31.6 µM (active)
- Ki [28]: 100 µM (active)
- Ki [29]: 15.8 µM (active)
- Ki [30]: > 79.4 µM (inactive)
- Ki [31]: 5.01 µM (active)
- Ki [32]: 20 µM (active)
- Ki [33]: 63.1 µM (active)
- Ki [34]: 15.8 µM (active)
- Ki [35]: 79.4 µM (active)
- Ki [36]: 63.1 µM (active)
- Ki [37]: 63.1 µM (active)
- Ki [38]: 63.1 µM (active)
- Ki [39]: 63.1 µM (active)
- Ki [40]: 10 µM (active)
- Ki [41]: 15.8 µM (active)
- Ki [42]: > 50.1 µM (inactive)
- Ki [43]: 31.6 µM (active)
- Ki [44]: 79.4 µM (active)
- Ki [45]: 31.6 µM (active)
- Ki [46]: 25.1 µM (active)
- Ki [47]: 12.6 µM (active)

Compound: CCn1c(SCC(=O)NCc2ccco2)nnc1-c1ccccc1O
- IC50 [48]: > 99 µM (inactive)
- IC50 [49]: > 99 µM (inactive)

From ChEMBL document CHEMBL1201862, “PubChem BioAssay data set” (2004)
